Experimental data as given in patent US6589755B1, “Assay for quantifying arthritic conditions” (Novartis AG, priority 1996, dated 2003).

Tested on: LMW-COMP fragment
Assay: LMW-COMP fragments in synovial fluid of treated arthritis patients
Type: in vivo, human
Details: strong anti-arthritic compound
Experimental: Twenty microliters of human synovial fluids were mixed 1:1 with SDS-PAGE loading buffer (NOVEX, San Diego, Calif.) containing 10% mercaptoethanol. The samples were boiled for 4 min. and […] applied per lane on a 14% or a 4-12% gradient SDS-PAGE Tris-Gly gel (Novex, Calif.). A separate set of these samples was also prepared for analysis under non-reducing conditions. Molecular weight markers were used to localize the molecular weight of unknowns. After electrophoresis, the samples were electrophoretically transferred onto a nitro-cellulose paper. The paper was treated with 2% bovine serum albumin (BSA) in 10 mM sodium phosphate, 0.15 M NaCl at […] (PBS) for 18 hours at 4° C.
The nitrocelluose paper was rinsed with PBS (10 mM sodium phosphate, 0.15 M NaCl at pH 7.2). […] The bound antibody was then detected using ECL or ECF substrate (Amersham Co.). The fragments were quantified using a Molecular Dynamics densitometer (Sunnyvale, Calif.). […]
A 96-well microtiter plate was coated with 0.1 ml/well of 50 ng/ml of antigen (synthetic peptide H741 without the N-terminal cysteine) in PBS for 48 to 72 h at 4° C. […] After 1 h at RT, the plate was washed 3-times with the ELISA wash buffer and the bound antibody detected by adding 100 μl/well of p-nitrophenyl phosphate substrate solution (Sigma, St. Louis, Mo.) and measuring optical density (OD) at 405 nm. […]

| Structure (SMILES) | LMW-COMP fragment produced under treatment |
| --- | --- |
| CN(Cc1cnc2nc(N)nc(N)c2n1)c1ccc(C(=O)N[C@@H](CCC(=O)O)C(=O)O)cc1 [methotrexate] | less |
| CN1C(C(=O)Nc2ccccn2)=C(O)c2ccccc2S1(=O)=O [piroxicam] | less |
